Assay: molar heat capacity at constant volume; xn = mol fraction of the nth substance listed
Conditions: Fluid (supercritical or subcritical phases), isochoric heat capacity, x1 = 0.2607

N [ammonia] + O
Conditions	molar heat capacity at constant volume [J/K/mol]
611.02 K, Mass density=301.94 kg/m3	85.7
611.02 K, Mass density=307.35 kg/m3	83.41
611.1 K, Mass density=301.94 kg/m3	86.38
611.1 K, Mass density=307.35 kg/m3	81.26
611.19 K, Mass density=299.79 kg/m3	81.78
611.23 K, Mass density=301.94 kg/m3	84.69
611.27 K, Mass density=299.79 kg/m3	82.1
611.35 K, Mass density=230.31 kg/m3	80.27
611.35 K, Mass density=301.94 kg/m3	83.16
611.36 K, Mass density=299.79 kg/m3	80.3
611.44 K, Mass density=230.31 kg/m3	81.01
611.44 K, Mass density=299.79 kg/m3	81.57
611.44 K, Mass density=301.94 kg/m3	83.38
611.52 K, Mass density=230.31 kg/m3	77.59
611.53 K, Mass density=299.79 kg/m3	80.94
611.57 K, Mass density=230.31 kg/m3	78.33
611.61 K, Mass density=299.79 kg/m3	79.86
611.61 K, Mass density=301.94 kg/m3	85.13
611.8 K, Mass density=230.31 kg/m3	77.07
612.29 K, Mass density=342.18 kg/m3	78.23
612.46 K, Mass density=376.89 kg/m3	76.4
612.55 K, Mass density=342.18 kg/m3	77.21
612.55 K, Mass density=376.89 kg/m3	78.49
612.63 K, Mass density=342.18 kg/m3	78.71
612.63 K, Mass density=376.89 kg/m3	74.83
612.8 K, Mass density=342.18 kg/m3	78.26
612.8 K, Mass density=376.89 kg/m3	75.58
612.89 K, Mass density=376.89 kg/m3	77.5
615.18 K, Mass density=160.07 kg/m3	57.18
615.27 K, Mass density=160.07 kg/m3	57.36
615.35 K, Mass density=160.07 kg/m3	59.17
615.52 K, Mass density=160.07 kg/m3	57.77
615.61 K, Mass density=160.07 kg/m3	57.15
615.69 K, Mass density=160.07 kg/m3	58.32
615.78 K, Mass density=160.07 kg/m3	59.81
615.86 K, Mass density=311.19 kg/m3	80.59
615.94 K, Mass density=311.19 kg/m3	82.26
615.94 K, Mass density=312.91 kg/m3	84.14
616.03 K, Mass density=311.19 kg/m3	78.26
616.03 K, Mass density=312.91 kg/m3	81.62
616.2 K, Mass density=309.95 kg/m3	81.9
616.2 K, Mass density=311.19 kg/m3	79.08
616.2 K, Mass density=312.91 kg/m3	78.12
616.24 K, Mass density=329 kg/m3	79.1
616.28 K, Mass density=309.95 kg/m3	81.26
616.29 K, Mass density=312.91 kg/m3	77.14
616.37 K, Mass density=309.95 kg/m3	80.5
616.37 K, Mass density=311.19 kg/m3	78.05
616.37 K, Mass density=312.91 kg/m3	80.69
616.45 K, Mass density=309.95 kg/m3	78.62
616.45 K, Mass density=329 kg/m3	75.46
616.54 K, Mass density=329 kg/m3	77.16
616.55 K, Mass density=309.95 kg/m3	82.93
616.62 K, Mass density=329 kg/m3	76.27
616.69 K, Mass density=299.79 kg/m3	82.29
616.71 K, Mass density=329 kg/m3	76.77
616.84 K, Mass density=299.79 kg/m3	80.34
616.95 K, Mass density=299.79 kg/m3	81.41
617.05 K, Mass density=299.79 kg/m3	82.13
617.13 K, Mass density=299.79 kg/m3	79.98
617.31 K, Mass density=299.79 kg/m3	80.5
617.46 K, Mass density=299.79 kg/m3	80.93
618.23 K, Mass density=342.18 kg/m3	78.08
618.32 K, Mass density=342.18 kg/m3	77.48
618.5 K, Mass density=342.18 kg/m3	78.3
618.57 K, Mass density=342.18 kg/m3	78.49
618.66 K, Mass density=342.18 kg/m3	76.77
619.76 K, Mass density=297.6 kg/m3	76.26
619.93 K, Mass density=297.6 kg/m3	75.1
620.01 K, Mass density=297.6 kg/m3	77.64
620.1 K, Mass density=297.6 kg/m3	76.82
624.74 K, Mass density=160.07 kg/m3	61.66
624.83 K, Mass density=160.07 kg/m3	63.49
624.99 K, Mass density=160.07 kg/m3	62.99
625.08 K, Mass density=160.07 kg/m3	60.95
625.16 K, Mass density=160.07 kg/m3	64.25
633.07 K, Mass density=160.07 kg/m3	67.64
633.16 K, Mass density=160.07 kg/m3	68.71
633.33 K, Mass density=160.07 kg/m3	67.18
633.49 K, Mass density=160.07 kg/m3	68.49
633.58 K, Mass density=160.07 kg/m3	67.41
633.66 K, Mass density=160.07 kg/m3	67.98
